“And” between values parts separate entries of the source, which are not always exact repeats. Identical values can stand only once. Inconclusive results and toxic doses are left out.
Test system: CD2F1 mice, L1210 leukemia ip, survival T/C
Assay: NCI In Vivo Anticancer Drug Screen. Data for tumor model L1210 Leukemia (intraperitoneal) in CD2F1 (CDF1) mice
Conditions: higher = longer survival
In short: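 Activity against a transplanted murine tumor was judged by comparing the compound group with a vehicle group. The outcome in the treated animals was divided by that in the controls.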

[1] = endpoint: mean survival time, dose: 100.0 mg/kg/injection, schedule: Q01DX001 (ip), vehicle: saline with Tween-80
[2] = endpoint: mean survival time, dose: 100.0 mg/kg/injection, schedule: Q01DX009 (ip), vehicle: saline with Tween-80
[3] = endpoint: mean survival time, dose: 100.0 mg/kg/injection, schedule: Q04DX002 (ip), vehicle: saline with Tween-80
[4] = endpoint: mean survival time, dose: 100.0 mg/kg/injection, schedule: Q04DX003 (ip), vehicle: saline with Tween-80
[5] = endpoint: mean survival time, dose: 200.0 mg/kg/injection, schedule: Q01DX001 (ip), vehicle: saline with Tween-80
[6] = endpoint: mean survival time, dose: 200.0 mg/kg/injection, schedule: Q01DX009 (ip), vehicle: saline with Tween-80
[7] = endpoint: mean survival time, dose: 200.0 mg/kg/injection, schedule: Q04DX002 (ip), vehicle: saline with Tween-80
[8] = endpoint: mean survival time, dose: 200.0 mg/kg/injection, schedule: Q04DX003 (ip), vehicle: saline with Tween-80
[9] = endpoint: mean survival time, dose: 400.0 mg/kg/injection, schedule: Q01DX009 (ip), vehicle: saline with Tween-80
[10] = endpoint: mean survival time, dose: 400.0 mg/kg/injection, schedule: Q04DX002 (ip), vehicle: saline with Tween-80
[11] = endpoint: mean survival time, dose: 400.0 mg/kg/injection, schedule: Q04DX003 (ip), vehicle: saline with Tween-80
[12] = endpoint: mean survival time, dose: 50.0 mg/kg/injection, schedule: Q01DX009 (ip), vehicle: saline with Tween-80
[13] = endpoint: mean survival time, dose: 400.0 mg/kg/injection, schedule: Q01DX001 (ip), vehicle: saline with Tween-80
[14] = endpoint: mean survival time, dose: 12.5 mg/kg/injection, schedule: Q01DX009 (ip), vehicle: saline with Tween-80
[15] = endpoint: mean survival time, dose: 25.0 mg/kg/injection, schedule: Q01DX009 (ip), vehicle: saline with Tween-80
[16] = endpoint: mean survival time, dose: 100.0 mg/kg/injection, schedule: Q01DX001 (ip), vehicle: saline
[17] = endpoint: mean survival time, dose: 200.0 mg/kg/injection, schedule: Q04DX003 (ip), vehicle: saline
[18] = endpoint: mean survival time, dose: 75.0 mg/kg/injection, schedule: Q01DX001 (ip), vehicle: other

CCCCCCCCCC(=O)NC(=S)Nc1ccc(C(=O)OCCCC)cc1
T/C [1]: 88 % of control | T/C [2]: 103 % of control | T/C [3]: 94 % of control and 103 % of control | T/C [4]: 90 % of control | T/C [5]: 86 % of control | T/C [6]: 92 % of control and 98 % of control | T/C [7]: 90 % of control and 100 % of control | T/C [8]: 93 % of control | T/C [9]: 89 % of control and 92 % of control | T/C [10]: 90 % of control and 91 % of control | T/C [11]: 93 % of control

CCOC(=O)CCC(NC(=O)c1ccccc1NC)C(=O)OCC (configuration not stated)
T/C [4]: 101 % of control | T/C [8]: 101 % of control | T/C [11]: 103 % of control

COc1cc(OC)c(NC(=O)Nc2ccc(C(=O)O)cc2)cc1Cl
T/C [12]: 89 % of control | T/C [2]: 100 % of control | T/C [6]: 96 % of control

CN1C2Cc3cc4c(cc3C1Cc1cc3c(cc12)OCO3)OCO4
T/C (endpoint: mean survival time, dose: 75.0 mg/kg/injection, schedule: Q01DX001 (ip), vehicle: saline): 100 % of control | T/C (endpoint: mean survival time, dose: 150.0 mg/kg/injection, schedule: Q01DX001 (ip), vehicle: saline): 94 % of control

CC(=O)Nc1cccc(NC(C)=O)n1
T/C [2]: 95 % of control | T/C [6]: 94 % of control | T/C [9]: 91 % of control

Nc1ccn([C@@H]2C=C(CO)[C@@H](O)[C@H]2O)c(=O)n1
T/C (endpoint: median survival time, dose: 0.44 mg/kg/injection, schedule: Q01DX009 (ip), vehicle: saline): 162 % of control and 168 % of control | T/C (endpoint: median survival time, dose: 0.45 mg/kg/injection, schedule: Q01DX009 (ip), vehicle: saline): 153 % of control | T/C (endpoint: median survival time, dose: 0.67 mg/kg/injection, schedule: Q01DX009 (ip), vehicle: saline): 180 % of control (2×) and 191 % of control | T/C (endpoint: median survival time, dose: 0.67 mg/kg/injection, schedule: Q01DX009 (oral), vehicle: saline): 101 % of control | T/C (endpoint: median survival time, dose: 1.5 mg/kg/injection, schedule: Q01DX009 (oral), vehicle: saline): 155 % of control and 205 % of control | T/C (endpoint: median survival time, dose: 2.0 mg/kg/injection, schedule: Q04DX003 (ip), vehicle: saline): 171 % of control | T/C (endpoint: median survival time, dose: 2.25 mg/kg/injection, schedule: Q01DX009 (ip), vehicle: saline): 117 % of control and 246 % of control | T/C (endpoint: median survival time, dose: 2.25 mg/kg/injection, schedule: Q01DX009 (oral), vehicle: saline): 157 % of control and 225 % of control | T/C (endpoint: median survival time, dose: 4.0 mg/kg/injection, schedule: Q01DX009 (ip), vehicle: saline): 93 % of control | T/C (endpoint: median survival time, dose: 4.0 mg/kg/injection, schedule: Q04DX003 (ip), vehicle: saline): 191 % of control | T/C (endpoint: median survival time, dose: 5.05 mg/kg/injection, schedule: Q01DX009 (oral), vehicle: saline): 123 % of control and 104 % of control | T/C (endpoint: median survival time, dose: 8.0 mg/kg/injection, schedule: Q04DX003 (ip), vehicle: saline): 183 % of control | T/C (endpoint: median survival time, dose: 250.0 micrograms/kg/injection, schedule: Q03HX024 (ip), vehicle: saline): 187 % of control | T/C (endpoint: median survival time, dose: 500.0 micrograms/kg/injection, schedule: Q03HX024 (ip), vehicle: saline): 216 % of control | T/C (endpoint: median survival time, dose: 2000.0 micrograms/kg/injection, schedule: Q03HX024 (ip), vehicle: saline): 96 % of control

CC(C)(C)C1=CC(=O)C(C(C)(C)C)=C(N=[N+]=[N-])C1=O
T/C [1]: 101 % of control | T/C [5]: 97 % of control | T/C [13]: 97 % of control

CN(C)CCCN1c2ccccc2Sc2ccc(Cl)cc21
T/C (endpoint: mean survival time, dose: 12.5 mg/kg/injection, schedule: Q01DX001 (ip), vehicle: saline): 107 % of control | T/C [14]: 115 % of control | T/C (endpoint: mean survival time, dose: 25.0 mg/kg/injection, schedule: Q01DX001 (ip), vehicle: saline): 117 % of control | T/C [15]: 86 % of control | T/C (endpoint: mean survival time, dose: 50.0 mg/kg/injection, schedule: Q01DX001 (ip), vehicle: saline): 120 % of control | T/C [16]: 111 % of control | T/C [17]: 97 % of control | T/C (endpoint: median survival time, dose: 15.0 mg/kg/injection, schedule: Q01DX001 (ip), vehicle: water): 118 % of control and 107 % of control | T/C (endpoint: median survival time, dose: 25.0 mg/kg/injection, schedule: Q01DX001 (ip), vehicle: water): 119 % of control and 107 % of control | T/C (endpoint: median survival time, dose: 30.0 mg/kg/injection, schedule: Q04DX003 (ip), vehicle: saline): 80 % of control | T/C (endpoint: median survival time, dose: 50.0 mg/kg/injection, schedule: Q01DX001 (ip), vehicle: water): 114 % of control and 120 % of control | T/C (endpoint: median survival time, dose: 60.0 mg/kg/injection, schedule: Q04DX003 (ip), vehicle: saline): 80 % of control | T/C (endpoint: median survival time, dose: 75.0 mg/kg/injection, schedule: Q01DX001 (ip), vehicle: water): 114 % of control | T/C (endpoint: median survival time, dose: 120.0 mg/kg/injection, schedule: Q04DX003 (ip), vehicle: saline): 87 % of control

c1ccc(C2=NC3CCCCC3N=C2c2ccccc2)cc1 (configuration not stated)
T/C [2]: 109 % of control | T/C [6]: 113 % of control | T/C [9]: 103 % of control

CCOC(=O)CN1CCC(C2(c3cc4ccccc4[nH]3)OCCO2)CC1
T/C [1]: 102 % of control | T/C [5]: 102 % of control | T/C [13]: 102 % of control

COC1C(O)C(C)OC(O[C@@H]2C[C@H]3CC[C@@H]4[C@H](CC[C@]5(C)[C@@H](C6=CC(=O)OC6)CC[C@]45O)[C@@]3(C)[C@H](O)C2)C1O (some centres not stated)
T/C [18]: 90 % of control | T/C (endpoint: mean survival time, dose: 150.0 mg/kg/injection, schedule: Q01DX001 (ip), vehicle: other): 91 % of control

c1ccc(-n2c3ccccc3c3ccccc32)cc1
T/C [2]: 98 % of control | T/C [6]: 98 % of control | T/C [9]: 95 % of control

CC1=CS(=O)(=O)CC(=O)N1
T/C [4]: 103 % of control | T/C [8]: 98 % of control | T/C [11]: 95 % of control

O=C(O)C(NC1CCCCC1)c1ccccc1 (configuration not stated)
T/C [12]: 95 % of control | T/C [2]: 103 % of control | T/C [4]: 92 % of control | T/C [6]: 92 % of control | T/C [8]: 93 % of control

Nc1ccc2c(S(=O)(=O)O)ccc(O)c2c1
T/C [2]: 100 % of control | T/C [4]: 96 % of control | T/C [6]: 93 % of control | T/C [8]: 96 % of control | T/C [9]: 90 % of control | T/C [11]: 98 % of control

CC1CCSCS1 (configuration not stated)
T/C (endpoint: mean survival time, dose: 12.5 mg/kg/injection, schedule: Q04DX002 (ip), vehicle: saline with Tween-80): 97 % of control | T/C (endpoint: mean survival time, dose: 25.0 mg/kg/injection, schedule: Q04DX002 (ip), vehicle: saline with Tween-80): 102 % of control | T/C (endpoint: mean survival time, dose: 50.0 mg/kg/injection, schedule: Q04DX002 (ip), vehicle: saline with Tween-80): 102 % of control

O=C1C=C(N2CCOCC2)C(=O)c2nccnc21
T/C (endpoint: mean survival time, dose: 25.0 mg/kg/injection, schedule: Q04DX003 (ip), vehicle: saline with Tween-80): 95 % of control | T/C (endpoint: mean survival time, dose: 50.0 mg/kg/injection, schedule: Q04DX003 (ip), vehicle: saline with Tween-80): 95 % of control

CCOP(=O)(OCC)C1=C(P(=O)(OCC)OCC)C(F)(F)C(F)(F)C1(F)F
T/C [18]: 107 % of control

O=S(=O)(O)c1ccc(-c2nnc(-c3ccccn3)nc2-c2ccc(S(=O)(=O)O)cc2)cc1
T/C (endpoint: mean survival time, dose: 100.0 mg/kg/injection, schedule: Q01DX009 (ip), vehicle: saline sonified): 96 % of control | T/C (endpoint: mean survival time, dose: 100.0 mg/kg/injection, schedule: Q04DX003 (ip), vehicle: saline): 97 % of control | T/C (endpoint: mean survival time, dose: 200.0 mg/kg/injection, schedule: Q01DX009 (ip), vehicle: saline sonified): 98 % of control | T/C [17]: 97 % of control | T/C (endpoint: mean survival time, dose: 400.0 mg/kg/injection, schedule: Q01DX009 (ip), vehicle: saline sonified): 94 % of control | T/C (endpoint: mean survival time, dose: 400.0 mg/kg/injection, schedule: Q04DX003 (ip), vehicle: saline): 92 % of control

CC1(C)OC1CS(=O)c1ccccc1 (configuration not stated)
T/C [14]: 95 % of control | T/C (endpoint: mean survival time, dose: 12.5 mg/kg/injection, schedule: Q01DX009 (ip), vehicle: saline): 98 % of control | T/C [15]: 98 % of control | T/C (endpoint: mean survival time, dose: 25.0 mg/kg/injection, schedule: Q01DX009 (ip), vehicle: saline): 93 % of control | T/C [12]: 95 % of control | T/C (endpoint: mean survival time, dose: 50.0 mg/kg/injection, schedule: Q01DX009 (ip), vehicle: saline): 101 % of control | T/C [2]: 95 % of control | T/C (endpoint: mean survival time, dose: 100.0 mg/kg/injection, schedule: Q01DX009 (ip), vehicle: saline): 95 % of control | T/C [6]: 98 % of control | T/C (endpoint: mean survival time, dose: 200.0 mg/kg/injection, schedule: Q01DX009 (ip), vehicle: saline): 105 % of control | T/C [9]: 93 % of control | T/C (endpoint: mean survival time, dose: 400.0 mg/kg/injection, schedule: Q01DX009 (ip), vehicle: saline): 98 % of control

O=C(NC/C=C/Br)Oc1cccc2ccccc12
T/C [3]: 101 % of control | T/C [7]: 93 % of control | T/C [10]: 101 % of control

BrC1CCCC1
T/C [16]: 100 % of control | T/C (endpoint: mean survival time, dose: 200.0 mg/kg/injection, schedule: Q01DX001 (ip), vehicle: saline): 102 % of control | T/C (endpoint: mean survival time, dose: 400.0 mg/kg/injection, schedule: Q01DX001 (ip), vehicle: saline): 102 % of control

CNc1cc(=O)[nH]cn1
T/C [1]: 95 % of control | T/C [5]: 100 % of control | T/C [13]: 101 % of control

Source: PubChem BioAssay AID256 (DTP/NCI, 2004)
